Laboratory results: the kinase profiling compilation of Christmann-Franck et al. (2016)

Columns and labels:
Assay in all cases: KINOMEscan competition binding
Settings in all cases: compound 10.0 µM
[1] = target: ACVR2A (human) (UniProt P27037)
[2] = target: IKBKB (human) (UniProt O14920)
[3] = target: NUAK1 (human) (UniProt O60285)
[4] = target: LRRK2 (human) (UniProt Q5S007)
[5] = target: NEK5 (human) (UniProt Q6P3R8)
[6] = target: FES (human) (UniProt P07332)
[7] = target: AKT1 (human) (UniProt P31749)
[8] = target: RIOK2 (human) (UniProt Q9BVS4)
[9] = target: EPHB4 (human) (UniProt P54760)
Sequence of EPHB4 (human) (P54760 whole entry, looked up): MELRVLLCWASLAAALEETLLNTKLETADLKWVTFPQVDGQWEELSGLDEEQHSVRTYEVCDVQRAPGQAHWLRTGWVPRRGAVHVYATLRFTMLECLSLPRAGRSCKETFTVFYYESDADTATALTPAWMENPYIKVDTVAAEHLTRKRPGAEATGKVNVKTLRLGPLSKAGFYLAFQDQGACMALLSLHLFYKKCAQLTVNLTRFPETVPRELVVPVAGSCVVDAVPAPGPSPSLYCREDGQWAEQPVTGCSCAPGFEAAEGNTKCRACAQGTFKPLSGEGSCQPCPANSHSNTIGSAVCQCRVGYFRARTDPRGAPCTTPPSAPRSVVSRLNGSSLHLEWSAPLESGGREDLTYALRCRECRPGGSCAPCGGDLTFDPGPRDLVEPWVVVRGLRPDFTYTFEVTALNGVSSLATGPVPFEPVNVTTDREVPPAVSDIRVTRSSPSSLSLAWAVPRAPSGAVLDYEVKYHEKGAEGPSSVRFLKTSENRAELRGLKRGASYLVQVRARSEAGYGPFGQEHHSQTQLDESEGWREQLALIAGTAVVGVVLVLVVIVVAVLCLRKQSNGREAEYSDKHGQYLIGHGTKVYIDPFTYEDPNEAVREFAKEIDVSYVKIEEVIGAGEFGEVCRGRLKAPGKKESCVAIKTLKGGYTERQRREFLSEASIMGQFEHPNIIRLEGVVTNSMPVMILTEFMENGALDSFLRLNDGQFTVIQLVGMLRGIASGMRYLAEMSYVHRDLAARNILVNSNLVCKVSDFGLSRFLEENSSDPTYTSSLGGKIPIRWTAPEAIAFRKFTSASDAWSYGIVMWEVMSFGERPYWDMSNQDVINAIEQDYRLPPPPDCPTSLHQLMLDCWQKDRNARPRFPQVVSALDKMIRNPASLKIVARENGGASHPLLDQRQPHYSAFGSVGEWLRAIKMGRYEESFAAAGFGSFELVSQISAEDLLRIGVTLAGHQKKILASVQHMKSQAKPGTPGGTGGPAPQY

[10] = target: PRKD2 (human) (UniProt Q9BZL6)
[11] = target: MAP2K7 (human) (UniProt O14733)
[12] = target: DCLK1 (human) (UniProt O15075)
[13] = target: TBK1 (human) (UniProt Q9UHD2)
[14] = target: PRKCE (human) (UniProt Q02156)
[15] = target: CDK5 (human) (UniProt Q00535)
[16] = target: EPHA6 (human) (UniProt Q9UF33)
[17] = target: MYLK2 (human) (UniProt Q9H1R3)
[18] = target: CDC42BPA (human) (UniProt Q5VT25)
[19] = target: RPS6KA2 KD1 (human) (UniProt Q15349)
[20] = target: SIK3 (human) (UniProt Q9Y2K2)
[21] = target: MAST1 (human) (UniProt Q9Y2H9)
[22] = target: CAMKK1 (human) (UniProt Q8N5S9)
[23] = target: ACVR1B (human) (UniProt P36896)
[24] = target: PRKD3 (human) (UniProt O94806)
[25] = target: NUAK2 (human) (UniProt Q9H093)
[26] = target: CSNK1D (human) (UniProt P48730)
[27] = target: IGF1R (human) (UniProt P08069)
Sequence of IGF1R (human) (P08069 whole entry, looked up): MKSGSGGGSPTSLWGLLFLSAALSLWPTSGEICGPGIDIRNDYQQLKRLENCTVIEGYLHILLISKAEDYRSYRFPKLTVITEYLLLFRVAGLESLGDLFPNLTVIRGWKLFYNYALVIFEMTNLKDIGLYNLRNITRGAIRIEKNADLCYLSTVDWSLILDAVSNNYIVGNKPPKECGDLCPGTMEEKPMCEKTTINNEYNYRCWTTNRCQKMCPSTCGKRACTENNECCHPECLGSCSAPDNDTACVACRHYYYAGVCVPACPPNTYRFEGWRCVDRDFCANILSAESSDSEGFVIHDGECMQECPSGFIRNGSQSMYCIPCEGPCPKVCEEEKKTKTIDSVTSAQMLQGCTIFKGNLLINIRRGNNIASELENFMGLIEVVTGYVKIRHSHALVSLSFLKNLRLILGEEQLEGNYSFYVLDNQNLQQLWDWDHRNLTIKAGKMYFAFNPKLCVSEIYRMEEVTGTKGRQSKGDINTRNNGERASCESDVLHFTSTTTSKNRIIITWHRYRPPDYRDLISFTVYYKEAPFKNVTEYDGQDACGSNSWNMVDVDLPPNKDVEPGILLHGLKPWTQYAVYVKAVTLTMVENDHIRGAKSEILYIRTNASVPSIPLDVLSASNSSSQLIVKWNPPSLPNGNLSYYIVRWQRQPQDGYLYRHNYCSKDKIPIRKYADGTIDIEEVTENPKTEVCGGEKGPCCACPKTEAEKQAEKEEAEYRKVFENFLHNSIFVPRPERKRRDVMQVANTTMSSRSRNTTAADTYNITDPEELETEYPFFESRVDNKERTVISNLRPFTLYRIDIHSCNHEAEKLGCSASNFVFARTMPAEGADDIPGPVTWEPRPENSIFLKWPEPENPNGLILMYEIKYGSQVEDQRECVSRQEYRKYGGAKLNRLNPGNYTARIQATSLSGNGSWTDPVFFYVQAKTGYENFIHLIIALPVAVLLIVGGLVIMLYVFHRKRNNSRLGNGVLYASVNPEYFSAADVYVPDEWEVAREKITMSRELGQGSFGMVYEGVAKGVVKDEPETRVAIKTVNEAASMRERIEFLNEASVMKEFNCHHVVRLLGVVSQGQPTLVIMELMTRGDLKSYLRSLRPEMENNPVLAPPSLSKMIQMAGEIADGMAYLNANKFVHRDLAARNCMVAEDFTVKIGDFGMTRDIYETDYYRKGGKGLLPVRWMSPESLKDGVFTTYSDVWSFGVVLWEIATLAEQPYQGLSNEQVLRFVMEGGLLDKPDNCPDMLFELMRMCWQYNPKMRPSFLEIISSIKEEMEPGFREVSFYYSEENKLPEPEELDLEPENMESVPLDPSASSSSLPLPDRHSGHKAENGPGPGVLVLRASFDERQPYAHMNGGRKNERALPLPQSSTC

[28] = target: PAK6 (human) (UniProt Q9NQU5)
[29] = target: AAK1 (human) (UniProt Q2M2I8)
[30] = target: EPHB3 (human) (UniProt P54753)
[31] = target: PLK4 (human) (UniProt O00444)
[32] = target: STK32C (human) (UniProt Q86UX6)
[33] = target: MET (human) (UniProt P08581)
[34] = target: MAP3K13 (human) (UniProt O43283)
Sequence of MAP3K13 (human) (O43283 whole entry, looked up): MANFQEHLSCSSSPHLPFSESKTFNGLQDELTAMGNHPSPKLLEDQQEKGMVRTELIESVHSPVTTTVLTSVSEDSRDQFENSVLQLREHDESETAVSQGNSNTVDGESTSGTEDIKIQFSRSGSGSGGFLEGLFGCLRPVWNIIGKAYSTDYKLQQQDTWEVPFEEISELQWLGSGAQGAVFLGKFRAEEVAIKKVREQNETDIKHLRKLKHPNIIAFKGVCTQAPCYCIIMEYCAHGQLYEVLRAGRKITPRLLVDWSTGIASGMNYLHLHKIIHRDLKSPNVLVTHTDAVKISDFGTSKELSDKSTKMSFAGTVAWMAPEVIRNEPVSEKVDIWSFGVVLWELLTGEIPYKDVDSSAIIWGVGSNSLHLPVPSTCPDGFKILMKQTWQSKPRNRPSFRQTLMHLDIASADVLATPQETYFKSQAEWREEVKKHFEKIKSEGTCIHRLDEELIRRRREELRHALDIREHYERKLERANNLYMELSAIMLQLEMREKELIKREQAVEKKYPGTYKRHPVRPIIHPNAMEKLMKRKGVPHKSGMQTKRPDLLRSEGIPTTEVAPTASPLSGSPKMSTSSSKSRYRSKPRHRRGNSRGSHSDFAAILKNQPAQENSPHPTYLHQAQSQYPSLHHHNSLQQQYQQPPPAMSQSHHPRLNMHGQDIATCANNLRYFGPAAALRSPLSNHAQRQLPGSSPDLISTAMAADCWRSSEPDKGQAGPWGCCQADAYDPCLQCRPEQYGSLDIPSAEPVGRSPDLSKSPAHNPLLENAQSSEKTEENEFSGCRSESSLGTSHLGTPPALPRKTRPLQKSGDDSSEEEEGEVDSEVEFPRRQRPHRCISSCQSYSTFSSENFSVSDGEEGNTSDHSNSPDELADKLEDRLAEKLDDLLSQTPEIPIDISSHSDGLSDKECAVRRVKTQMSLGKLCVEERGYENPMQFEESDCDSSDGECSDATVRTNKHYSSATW

[35] = target: TSSK1B (human) (UniProt Q9BXA7)
[36] = target: PKN2 (human) (UniProt Q16513)
Sequence of PKN2 (human) (Q16513 whole entry, looked up): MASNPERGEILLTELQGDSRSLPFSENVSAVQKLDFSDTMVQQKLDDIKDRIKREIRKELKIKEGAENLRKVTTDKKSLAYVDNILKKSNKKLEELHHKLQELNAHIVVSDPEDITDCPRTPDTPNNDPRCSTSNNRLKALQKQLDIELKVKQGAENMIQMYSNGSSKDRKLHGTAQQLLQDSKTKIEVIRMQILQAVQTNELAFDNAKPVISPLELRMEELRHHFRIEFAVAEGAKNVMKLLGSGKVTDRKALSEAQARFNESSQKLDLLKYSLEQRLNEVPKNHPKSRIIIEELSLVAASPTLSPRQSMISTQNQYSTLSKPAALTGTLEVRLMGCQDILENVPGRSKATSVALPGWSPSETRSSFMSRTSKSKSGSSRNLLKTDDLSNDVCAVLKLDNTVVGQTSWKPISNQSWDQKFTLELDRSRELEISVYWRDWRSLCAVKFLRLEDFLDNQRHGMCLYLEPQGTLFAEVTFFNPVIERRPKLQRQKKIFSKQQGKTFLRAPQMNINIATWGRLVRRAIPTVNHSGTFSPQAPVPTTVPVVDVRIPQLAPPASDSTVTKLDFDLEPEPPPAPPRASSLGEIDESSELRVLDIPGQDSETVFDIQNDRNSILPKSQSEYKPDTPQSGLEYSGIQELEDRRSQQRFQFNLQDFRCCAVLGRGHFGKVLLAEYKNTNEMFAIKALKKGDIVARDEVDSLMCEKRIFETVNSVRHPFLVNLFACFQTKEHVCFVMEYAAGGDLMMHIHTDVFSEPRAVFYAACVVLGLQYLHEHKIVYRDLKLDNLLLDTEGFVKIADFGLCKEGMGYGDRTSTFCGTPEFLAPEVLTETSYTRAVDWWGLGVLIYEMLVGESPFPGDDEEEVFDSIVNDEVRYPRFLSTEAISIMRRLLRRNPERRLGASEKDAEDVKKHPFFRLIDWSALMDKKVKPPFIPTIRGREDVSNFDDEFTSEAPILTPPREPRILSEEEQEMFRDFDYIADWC

[37] = target: MAPK8 (human) (UniProt P45983)
[38] = target: AXL (human) (UniProt P30530)
[39] = target: DDR1 (human) (UniProt Q08345)
[40] = target: CDK14 (human) (UniProt O94921)

Sequence of FES (human) (P07332 whole entry, looked up): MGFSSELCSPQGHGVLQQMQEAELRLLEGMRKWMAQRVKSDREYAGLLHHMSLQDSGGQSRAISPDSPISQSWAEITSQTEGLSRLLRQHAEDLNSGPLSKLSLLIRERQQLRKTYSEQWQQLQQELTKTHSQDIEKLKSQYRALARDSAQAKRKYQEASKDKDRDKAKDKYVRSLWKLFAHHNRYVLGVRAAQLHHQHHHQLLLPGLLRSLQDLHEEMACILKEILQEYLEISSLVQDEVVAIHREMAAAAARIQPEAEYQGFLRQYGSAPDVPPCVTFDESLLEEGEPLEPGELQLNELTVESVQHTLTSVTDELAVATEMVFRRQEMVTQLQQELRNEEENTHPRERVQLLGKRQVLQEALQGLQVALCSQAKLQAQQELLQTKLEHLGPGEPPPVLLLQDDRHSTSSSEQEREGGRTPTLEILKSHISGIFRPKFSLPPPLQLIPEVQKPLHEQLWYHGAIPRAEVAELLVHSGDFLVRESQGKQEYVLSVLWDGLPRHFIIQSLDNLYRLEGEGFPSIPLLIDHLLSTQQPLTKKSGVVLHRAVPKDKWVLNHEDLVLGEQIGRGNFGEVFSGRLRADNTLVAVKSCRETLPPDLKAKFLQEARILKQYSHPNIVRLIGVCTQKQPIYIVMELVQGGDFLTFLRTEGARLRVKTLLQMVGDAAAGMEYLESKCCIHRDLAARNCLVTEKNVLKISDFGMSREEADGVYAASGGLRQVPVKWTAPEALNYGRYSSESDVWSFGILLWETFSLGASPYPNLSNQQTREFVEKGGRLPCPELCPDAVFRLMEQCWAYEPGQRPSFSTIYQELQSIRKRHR

SMILES | kinase still bound, per cent of control [1] [%] | kinase still bound, per cent of control [2] [%] | kinase still bound, per cent of control [3] [%] | kinase still bound, per cent of control [4] [%] | kinase still bound, per cent of control [5] [%] | kinase still bound, per cent of control [6] [%] | kinase still bound, per cent of control [7] [%] | kinase still bound, per cent of control [8] [%] | kinase still bound, per cent of control [9] [%] | kinase still bound, per cent of control [10] [%] | kinase still bound, per cent of control [11] [%] | kinase still bound, per cent of control [12] [%] | kinase still bound, per cent of control [13] [%] | kinase still bound, per cent of control [14] [%] | kinase still bound, per cent of control [15] [%] | kinase still bound, per cent of control [16] [%] | kinase still bound, per cent of control [17] [%] | kinase still bound, per cent of control [18] [%] | kinase still bound, per cent of control [19] [%] | kinase still bound, per cent of control [20] [%] | other results
CN(C)C/C=C/C(=O)Nc1ccc(C(=O)Nc2cccc(Nc3nccc(-c4cccnc4)n3)c2)cc1 | 53 | 65 | 61 | 100 | 2.2 | 99 | 100 | 9.6 | 100 | 100 | 80 | 98 | 38 | 75 | 100 | 90 | 53 | 100 | 83 | 64 | kinase still bound, per cent of control [21]: 100%; kinase still bound, per cent of control [22]: 52%; kinase still bound, per cent of control [23]: 86%; kinase still bound, per cent of control [24]: 94%; kinase still bound, per cent of control [25]: 30%; kinase still bound, per cent of control [26]: 20%; kinase still bound, per cent of control [27]: 100%; kinase still bound, per cent of control [28]: 46%; kinase still bound, per cent of control [29]: 5.2%; kinase still bound, per cent of control [30]: 75%; kinase still bound, per cent of control [31]: 29%; kinase still bound, per cent of control [32]: 100%; kinase still bound, per cent of control [33]: 100%; kinase still bound, per cent of control [34]: 100%; kinase still bound, per cent of control [35]: 100%; kinase still bound, per cent of control [36]: 79%; kinase still bound, per cent of control [37]: 1.2%; kinase still bound, per cent of control [38]: 80%; kinase still bound, per cent of control [39]: 100%; kinase still bound, per cent of control [40]: 98%
COCC(=O)NC/C=C/c1ccc2ncnc(Nc3ccc(Oc4ccc(C)nc4)c(C)c3)c2c1 | 100 | 100 | 100 | 100 | 100 | 100 | 100 | 100 | 95 | 97 | 100 | 100 | 90 | 100 | 100 | 96 | 100 | 100 | 78 | 76 | kinase still bound, per cent of control [21]: 100%; kinase still bound, per cent of control [22]: 96%; kinase still bound, per cent of control [23]: 100%; kinase still bound, per cent of control [24]: 83%; kinase still bound, per cent of control [25]: 100%; kinase still bound, per cent of control [26]: 90%; kinase still bound, per cent of control [27]: 83%; kinase still bound, per cent of control [28]: 89%; kinase still bound, per cent of control [29]: 100%; kinase still bound, per cent of control [30]: 86%; kinase still bound, per cent of control [31]: 74%; kinase still bound, per cent of control [32]: 86%; kinase still bound, per cent of control [33]: 74%; kinase still bound, per cent of control [34]: 80%; kinase still bound, per cent of control [35]: 100%; kinase still bound, per cent of control [36]: 99%; kinase still bound, per cent of control [37]: 66%; kinase still bound, per cent of control [38]: 68%; kinase still bound, per cent of control [39]: 52%; kinase still bound, per cent of control [40]: 100%
